Article PMC3966878, “Crystal Structure of ORF210 from E. coli O157:H1 Phage CBA120 (TSP1), a Putative Tailspike Protein” (PLoS ONE, 2014)

What was measured:
[1] = target: T1, TSP1 (ORF210) from CBA120 phage (Escherichia phage Cba120, UniProt G3M189); assay: X-ray crystal structure (soak), […] Å; assay type: binding; conditions: crystal soak in mother liquor with 37% saturated sugar, Tris-HCl pH 7.0-7.6
T1 construct: full length, 770 residues plus C-terminal 6xHis tag; codon-optimized gene expressed in E. coli BL21; homotrimer, 82 kDa monomer; one Zn2+ per trimer
T1 sequence (G3M189 1-770): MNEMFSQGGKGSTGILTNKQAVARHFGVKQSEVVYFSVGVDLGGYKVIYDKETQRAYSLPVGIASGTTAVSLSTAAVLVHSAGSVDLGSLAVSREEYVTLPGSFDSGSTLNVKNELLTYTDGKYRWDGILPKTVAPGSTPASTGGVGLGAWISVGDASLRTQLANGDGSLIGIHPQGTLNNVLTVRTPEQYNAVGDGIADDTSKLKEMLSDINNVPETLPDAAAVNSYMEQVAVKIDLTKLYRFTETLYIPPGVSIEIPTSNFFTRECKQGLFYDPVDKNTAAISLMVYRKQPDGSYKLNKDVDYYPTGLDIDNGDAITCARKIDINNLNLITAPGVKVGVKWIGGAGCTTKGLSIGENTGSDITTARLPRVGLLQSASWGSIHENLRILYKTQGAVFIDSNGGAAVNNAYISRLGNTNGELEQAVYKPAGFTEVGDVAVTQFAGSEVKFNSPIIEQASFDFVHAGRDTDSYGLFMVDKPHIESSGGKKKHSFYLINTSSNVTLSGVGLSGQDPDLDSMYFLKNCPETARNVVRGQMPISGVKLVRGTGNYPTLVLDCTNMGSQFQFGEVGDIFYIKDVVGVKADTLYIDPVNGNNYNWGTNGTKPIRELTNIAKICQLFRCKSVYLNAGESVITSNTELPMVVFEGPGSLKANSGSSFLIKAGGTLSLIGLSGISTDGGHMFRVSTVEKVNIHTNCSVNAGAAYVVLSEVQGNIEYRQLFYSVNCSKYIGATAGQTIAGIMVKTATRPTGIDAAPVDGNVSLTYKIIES

[2] = target: T1, TSP1 (ORF210) from CBA120 phage; assay: X-ray crystal structure (soak), […] Å; assay type: binding; conditions: crystal soak in mother liquor with 37% saturated sugar, Tris-HCl pH 7.0-7.6; site on the surface of D3, single subunit (Tyr306, Tyr427, Phe443, Ala430)
[3] = target: the molecule itself; assay: SEC; analytical gel filtration, Superose 6, 100 ug TSP1, isocratic in PBS; mass from a standard curve of gel filtration standards
[4] = target: the molecule itself; assay: crystal structure; hanging drop, 0.1 M Tris-HCl pH 7.0-7.6, 16% PEG 1000, room temperature; space group P212121; MAD phasing on Se-Met crystal; 1.8 A

## OC[C@H]1O[C@@H](O)[C@H](O)[C@@H](O)[C@@H]1O [glucose]
[1]; site in D3-D4 hole next to D4, single subunit (Glu639, Lys662, Lys615)
  X-ray crystal structure (soak), 2.0 Å: 4OJL for TSP1/glucose complex

## OC[C@H]1O[C@@H](O[C@H]2[C@H](O)[C@@H](O)[C@@H](O)O[C@@H]2CO)[C@H](O)[C@@H](O)[C@H]1O [α-lactose]
[1]; site deep in D3-D4 hole between two subunits (Val579, Lys577, Asp585)
  X-ray crystal structure (soak), 2.0 Å: 4OJO for TSP1/lactose complex

## OC[C@H]1O[C@H](O[C@H]2[C@H](O)[C@@H](O)[C@@H](O)O[C@@H]2CO)[C@H](O)[C@@H](O)[C@@H]1O [α-maltose]
[2]
  X-ray crystal structure (soak), 1.95 Å: 4OJP for TSP1/maltose complex

B1: TSP1 (tailspike protein 1, ORF210) from bacteriophage CBA120, wild-type, with C-terminal 6X-His tag (natural protein, bacteriophage CBA120 (vB_EcoM_CBA120), UniProt G3M189 1-770, looked up)
chain: MNEMFSQGGKGSTGILTNKQAVARHFGVKQSEVVYFSVGVDLGGYKVIYDKETQRAYSLPVGIASGTTAVSLSTAAVLVHSAGSVDLGSLAVSREEYVTLPGSFDSGSTLNVKNELLTYTDGKYRWDGILPKTVAPGSTPASTGGVGLGAWISVGDASLRTQLANGDGSLIGIHPQGTLNNVLTVRTPEQYNAVGDGIADDTSKLKEMLSDINNVPETLPDAAAVNSYMEQVAVKIDLTKLYRFTETLYIPPGVSIEIPTSNFFTRECKQGLFYDPVDKNTAAISLMVYRKQPDGSYKLNKDVDYYPTGLDIDNGDAITCARKIDINNLNLITAPGVKVGVKWIGGAGCTTKGLSIGENTGSDITTARLPRVGLLQSASWGSIHENLRILYKTQGAVFIDSNGGAAVNNAYISRLGNTNGELEQAVYKPAGFTEVGDVAVTQFAGSEVKFNSPIIEQASFDFVHAGRDTDSYGLFMVDKPHIESSGGKKKHSFYLINTSSNVTLSGVGLSGQDPDLDSMYFLKNCPETARNVVRGQMPISGVKLVRGTGNYPTLVLDCTNMGSQFQFGEVGDIFYIKDVVGVKADTLYIDPVNGNNYNWGTNGTKPIRELTNIAKICQLFRCKSVYLNAGESVITSNTELPMVVFEGPGSLKANSGSSFLIKAGGTLSLIGLSGISTDGGHMFRVSTVEKVNIHTNCSVNAGAAYVVLSEVQGNIEYRQLFYSVNCSKYIGATAGQTIAGIMVKTATRPTGIDAAPVDGNVSLTYKIIES
notes: Tailspike protein 1 (TSP1), open reading frame 210 (tsp1) of the phage CBA120 genome, codon-optimised synthetic gene; the encoded 770 amino acid residues followed by six histidines; A construct with an N-terminal 6X-His tag was dropped; the C-terminal tag construct was used for all experiments; also called CBA120 TSP1; wild-type TSP1; source: E. coli BL21 (pBAD24, arabinose induction), purified …
[3]
  stoichiometry N: 3

B2: Selenomethionine derivative of TSP1 (ORF210) from bacteriophage CBA120, with C-terminal 6X-His tag (natural protein, bacteriophage CBA120 (vB_EcoM_CBA120), UniProt G3M189 1-770, looked up)
chain: MNEMFSQGGKGSTGILTNKQAVARHFGVKQSEVVYFSVGVDLGGYKVIYDKETQRAYSLPVGIASGTTAVSLSTAAVLVHSAGSVDLGSLAVSREEYVTLPGSFDSGSTLNVKNELLTYTDGKYRWDGILPKTVAPGSTPASTGGVGLGAWISVGDASLRTQLANGDGSLIGIHPQGTLNNVLTVRTPEQYNAVGDGIADDTSKLKEMLSDINNVPETLPDAAAVNSYMEQVAVKIDLTKLYRFTETLYIPPGVSIEIPTSNFFTRECKQGLFYDPVDKNTAAISLMVYRKQPDGSYKLNKDVDYYPTGLDIDNGDAITCARKIDINNLNLITAPGVKVGVKWIGGAGCTTKGLSIGENTGSDITTARLPRVGLLQSASWGSIHENLRILYKTQGAVFIDSNGGAAVNNAYISRLGNTNGELEQAVYKPAGFTEVGDVAVTQFAGSEVKFNSPIIEQASFDFVHAGRDTDSYGLFMVDKPHIESSGGKKKHSFYLINTSSNVTLSGVGLSGQDPDLDSMYFLKNCPETARNVVRGQMPISGVKLVRGTGNYPTLVLDCTNMGSQFQFGEVGDIFYIKDVVGVKADTLYIDPVNGNNYNWGTNGTKPIRELTNIAKICQLFRCKSVYLNAGESVITSNTELPMVVFEGPGSLKANSGSSFLIKAGGTLSLIGLSGISTDGGHMFRVSTVEKVNIHTNCSVNAGAAYVVLSEVQGNIEYRQLFYSVNCSKYIGATAGQTIAGIMVKTATRPTGIDAAPVDGNVSLTYKIIES
modifications: selenomethionine in place of methionine
notes: Tailspike protein 1 (TSP1), open reading frame 210 (tsp1) of the phage CBA120 genome, same plasmid pBAD24::tsp1 as m1; the encoded 770 amino acid residues followed by six histidines; also called Se-Met TSP1; SeMet TSP1; source: E. coli B834 (methionine auxotroph, SelenoMet media with 40 mg/L selenomethionine), purified as the wild type; not shown: His6, C-terminal, kept
[4]
  stoichiometry N: 3
